{"source": "patent US20080213236A1", "about": "“Natural Remedy-Dietary Supplement Combination Product” (priority 2005, published 2008)", "key": {"[1]": {"settings": "single substance; cited from earlier work"}, "[2]": {"tested_on": "patients with rheumatoid arthritis", "experiment": "Treatment of rheumatoid arthritis patients with the individual substances or extracts A-F", "format": "in vivo, human", "settings": "for alleviation/reduction of joint pain / improvement in joint sensitivity: after two weeks; for Result of treatment, scale of 1-10: individual substance, scale from 1 (scarcely any alleviation of symptoms) to 10 (complete elimination of symptoms)", "protocol": "All the abovementioned active ingredients or medicinal plant extracts A-F were tested singly in the treatment of rheumatoid arthritis. The following products and daily doses were used for this: A. Omega-3 fatty acids: 8 capsules of Ameu® 500 mg. One capsule of Ameu contains 500 mg of fish body oil (fatty oil from […] comprises 70 mg of eicosapentaenoic acid and 50 mg of docosahexaenoic acid (total 120 mg of omega-3 fatty acids). B. α-Tocopherol (vitamin E): 800 to 1000 I.U. once a day. C. Ascorbic acid (vitamin C): 3 g in three 1000 mg doses. D. Selenium: 300 μg of selenium as sodium selenite 5H2O ([…]® or […]®) once a day. E. Harpagophytum: 2×480 mg of dry extract once a day (extractant: ethanol 60% (V/V) (BIOCUR Arzneimittel GmbH). F. Boswellia serrata: 3×400 mg of dry extract once a day (H 15 Gufic tablets (Gufic Chem, India)). […] A positive rheumatoid factor was not obligatory. All the treated patients had elevated C-reactive protein and frequently raised ferritin as signs of inflammation. Bacterial and parasitic causes, and allergies (including yersinia, staphylococci, streptococci, mycoplasma, Whipple's disease, borreliosis and gluten allergies) were excluded. […] All the patients had discontinued their previous medication (morphine, ibuprofen, cortisol, etc.) at least one week before starting the treatment, or had received no medical therapy over a prolonged period because of toxic side effects of other medicaments. The results of treatment were classified on a scale of from 1 (scarcely any alleviation of symptoms) to 10 (complete elimination of symptoms)."}, "[3]": {"tested_on": "rheumatoid arthritis", "settings": "vitamin E alone, 1200 mg/day, without influencing the immune markers; cited from earlier work"}}}
{"compound": "C[C@]1(OC(=O)/C=C/c2ccccc2)C[C@@H](O)[C@]2(O)C=CO[C@@H](O[C@@H]3O[C@H](CO)[C@@H](O)[C@H](O)[C@H]3O)[C@@H]21", "note": "[Harpagoside]", "values": [{"measurement": "effectiveness compared with total root extract", "setting": "[1]", "result": "far less effective than the total root extract"}]}
{"compound": "Cc1c(C)c2c(c(C)c1O)CC[C@@](C)(CCC[C@H](C)CCC[C@H](C)CCCC(C)C)O2", "note": "[α-Tocopherol (vitamin E), α-Tocopherol]", "values": [{"measurement": "alleviation/reduction of joint pain", "setting": "[2]", "result": 5, "unit": "%"}, {"measurement": "improvement in joint sensitivity", "setting": "[2]", "result": 10, "unit": "%"}, {"measurement": "Result of treatment, scale of 1-10", "setting": "[2]", "result": 3.0}, {"measurement": "pain", "setting": "[3]", "result": "alleviation of pain"}]}
{"compound": "O=C1O[C@H]([C@@H](O)CO)C(O)=C1O", "note": "[Ascorbic acid (vitamin C), Ascorbic acid]", "values": [{"measurement": "alleviation/reduction of joint pain", "setting": "[2]", "result": "2-5%"}, {"measurement": "improvement in joint sensitivity", "setting": "[2]", "result": "5-10%"}, {"measurement": "Result of treatment, scale of 1-10", "setting": "[2]", "result": 2}]}
